Measured values published in patent US20240287133A1, “PEPTIDE HAVING ACTIVITY OF PREVENTING HAIR LOSS OR PROMOTING HAIR GROWTH, AND USE THEREOF” (CAREGEN CO., LTD., priority 2021, published 2024).

What was measured:
Type in all cases: cell-based, human
HHFDPC = assay: MTT proliferation of dermal papilla cells; conditions: peptide 500 nM, 5 μM, 50 μM, 72 hours, vs untreated control, FIG. 1
Method: While culturing human hair follicle dermal dermal papilla cells (HHFDPC), the absorbance was measured after treatment with the peptide of the present invention to confirm whether there was an effect of promoting the proliferation of the HHFDPC dermal papilla cells.
Specifically, HHFDPC (Sciencell, USA) was seeded at 4×10^3 cells/well in a 96-well culture plate, cultured in MSC complete medium (mesenchymal stem cell complete media, Sciencell, USA) for 24 hours, and then the medium was replaced with serum free MSC complete medium and cultured for another 24 hours. Then, the HHFDPC was treated with the peptide of SEQ ID NO: 1 prepared in the Preparation Example at concentrations of 500 nM, 5 µM, and 50 μM, respectively, and cultured at 37° C. for 72 hours. As a positive control, minoxidil was treated at a concentration of 1 μM, and as a negative control, HHFDPC without any treatment was used. Then, 10 ? of 5 mg/mL MTT solution was added and cultured in a 37° C. CO2 incubator for 4 hours to stain the cells. After removing the medium, the cells were treated with 100 μl of DMSO and shaken for 10 minutes, and the number of HHFDPC cells was confirmed by measuring absorbance at a wavelength of 540 nm using a spectrophotometer.

LEF-1 = assay: RT-PCR of LEF-1 in HHFDPC; conditions: peptide 500 nM, 5 μM, 50 μM, 24 hours, vs control without treatment, FIG. 4
Method: (§1) Furthermore, in order to determine whether the β-catenin moves to the nucleus and is activated to affect proliferation and differentiation, whether the expression of LEF-1, c-Myc and cyclin D1 (cyclin D1), which act as downstream factors, increases with β-catenin activation was confirmed through RT-PCR. Specifically, in the same manner as the previous Western blotting experiment, HHFDPC cells were cultured, treated with the peptides of the Preparation Example of the present invention at concentrations of 500 nM, 5 μM, and 50 μM, respectively, and cultured at 37° C. for 24 hours. After washing the cells with PBS, RNA was isolated by treating them with 300 […] of easy blue (intron, Korea). Then, CDNA was synthesized using a cDNA synthesis kit (enzynomics, Korea) by quantifying it with nano drop, and PCR was performed using primers for LEF-1, c-Myc and cyclin D1 (base sequences of the primers are listed in Table 2 below) and PCR premix (enzynomics, Korea). Electrophoresis was performed on a 1.5% agarose gel, and then the mRNA of LEF-1 and cyclin D1 was detected using a band analysis system (Bio-Rad gel image system).

c-Myc = assay: RT-PCR of c-Myc in HHFDPC; conditions: peptide 500 nM, 5 μM, 50 μM, 24 hours, vs control without treatment, FIG. 4
Method: as §1

DKK-1 protein = assay: Western blotting of DKK-1 protein in DHT-treated HHFDPC; conditions: HHFDPC with DHT 100 nM, peptide 500 nM, 5 μM, 50 μM, 24 hours, vs negative control (DHT only), FIG. 5
Method: DKK-1 protein (dickkopf-related protein 1) is a hair loss-related protein known to be highly expressed in individuals with hair loss, especially male pattern hair loss, and its expression is known to be promoted by hormones such as DHT (Dihydrotestosterone). Accordingly, the expression of DKK-1 protein was induced by treating HHFDPC cells with DHT together with the peptide according to the Preparation Example of the present invention, and then the expression level of DKK-1 was measured through Western blotting to determine whether there was an effect of suppressing the expression of DKK-1 protein.
Specifically, HHFDPC as in [Experiment Example 1-1] was seeded in a 6-well culture plate at 4×10^5 cells/well and then cultured in MSC complete medium (mesenchymal stem cell complete media) for 24 hours. Next, the medium was replaced with serum free MSC complete medium and cultured again for 24 hours. In addition, the HHFDPC was treated with the peptide of SEQ ID NO: 1 prepared in Preparation Example at concentrations of 500 nM, 5 μM, and 50 μM, respectively, and at this time, DHT, an expression inducer of DKK-1 protein, was simultaneously treated at a concentration of 100 nM and then cultured at 37° C. for 24 hours. […] After washing again with 0.1% PBS-T (0.1% Tween-20 in PBS) three times for 15 minutes each, DKK-1 protein was detected by treatment with ECL solution (GE Healthcare, USA).

cyclin D1 = assay: RT-PCR of cyclin D1 in HHFDPC; conditions: peptide 500 nM, 5 μM, 50 μM, 24 hours, vs control without treatment, FIG. 4
Method: as §1

Keratin 19 = assay: RT-PCR of Keratin 19 in HHORSC; conditions: peptide 500 nM, 5 μM, 50 μM, 72 hours, vs control without treatment, FIG. 6
Method: (§2) Specifically, HHORSC (human hair outer root sheath cell, Sciencell, USA) was seeded in a 6-well culture plate at 4×10^5 cells/well and then cultured in MSC complete medium (mesenchymal stem cell complete media) for 24 hours. Next, the medium was replaced with serum free MSC complete medium and cultured again for 24 hours. Then, the HHORSC was treated with the peptide of Preparation Example consisting of amino acid sequence of SEQ ID NO: 1 at concentrations of 500 nM, 5 μM, and 50 μM, respectively, and cultured at 37° C. for 72 hours. As a positive control, EGF was treated at a concentration of 50 nM, and as a negative control, HHORSC without any treatment was used. After washing with PBS, RNA was isolated by treating with 300 ? of easy blue (intron, Korea). Then, CDNA was synthesized using a cDNA synthesis kit (enzynomics, Korea) by quantification using nano drop, and PCR was performed using primer for Ha3-II, Keratin 14, and Keratin 19 (the base sequences of primer are listed in Table 3 below) and PCR premix (enzynomics, Korea). Electrophoresis was performed on a 1.5% agarose gel, and the mRNAs of Ha3-II, Keratin 14, and Keratin 19 were detected using a band analysis system (Bio-Rad gel image system).

β-catenin = assay: Western blotting of β-catenin moved into the nucleus of HHFDPC; conditions: HHFDPC nuclear protein, peptide 500 nM, 5 μM, 50 μM, 24 hours, vs control, FIG. 3
Method: In addition, in addition to p-AKT and p-ERK, in order to confirm the activation of β-catenin, which is known to affect cell proliferation and differentiation, whether β-catenin moved into the nucleus was confirmed through Western blotting. Specifically, the HHFDPC as in [Experiment Example 1-1] was seeded in a 6-well culture plate at an amount of 4×10^5 cells/well, cultured in MSC complete medium (mesenchymal stem cell complete media) for 24 hours. Next, the medium was replaced with serum free MSC complete medium and cultured again for 24 hours. Then, the HHFDPC was treated with the peptide of SEQ ID NO: 1 prepared in the Preparation Example at concentrations of 500 nM, […], and 50 μM, respectively, and cultured at 37° C. for 24 hours. As a positive control, minoxidil was treated at a concentration of 1 μM, and as a negative control, HHFDPC without any treatment was used. After washing with PBS, proteins in the nucleus were isolated using a nuclear protein extraction kit (Thermo scientific, USA). After electrophoresis using a 10% SDS-PAGE gel, it was transferred to a PVDF membrane and blocked using 5% skim milk at room temperature for 30 minutes. […] After washing again with 0.1% PBS-T (0.1% Tween-20 in PBS) three times for 15 minutes each, β-catenin was detected by treatment with ECL solution (GE Healthcare, USA).

MSX2 = assay: RT-PCR of MSX2 in HHGMC; conditions: peptide 500 nM, 5 μM, 50 μM, 72 hours, vs untreated control, FIG. 7
Method: Specifically, HHGMC (human hair germinal matrix cell, Sciencell, USA) was seeded in a 6-well culture plate at 4×10^5 cells/well and then cultured in MSC complete medium (mesenchymal stem cell complete media) for 24 hours. Next, the medium was replaced with serum free MSC complete medium and cultured again for 24 hours. Then, the HHGMC was treated with the peptide of SEQ ID NO: 1 prepared in the Preparation Example at concentrations of 500 nM, 5 μM, and 50 µM, respectively, and cultured at 37° C. for 72 hours. As a positive control, EGF was treated at a concentration of 50 nM, and as a negative control, HHGMC without any treatment was used. After washing with PBS, RNA was isolated by treating with 300 ? of easy blue (intron, Korea). Next, cDNA was synthesized using a cDNA synthesis kit (enzynomics, Korea) by quantification using nano drop, and PCR was performed using primers for MSX2 (base sequences of primers are listed in Table 4 below) and PCR premix (enzynomics, Korea). Electrophoresis was performed on a 1.5% agarose gel, and MSX2 mRNA was detected using a band analysis system (Bio-Rad gel image system).

Keratin 14 = assay: RT-PCR of Keratin 14 in HHORSC; conditions: peptide 500 nM, 5 μM, 50 μM, 72 hours, vs control without treatment, FIG. 6
Method: as §2

p-ERK = assay: Western blotting of phosphorylated ERK in HHFDPC; conditions: peptide 500 nM, 5 μM, 50 μM, 24 hours, vs control not treated with the peptide, FIG. 2
Method: (§3) First, phosphorylated forms of AKT and ERK, which act as signaling molecules related to the proliferation of HHFDPC, were confirmed through Western blotting. Specifically, HHFDPC as in [Experiment Example 1-1] above was seeded at 4×10^5 cells/well in a 6-well culture plate, cultured in MSC complete medium (mesenchymal stem cell complete media) for 24 hours, and then the medium was replaced with serum free MSC complete medium and cultured for another 24 hours. Then, the HHFDPC was treated with the peptide of SEQ ID NO: 1 prepared in the Preparation Example at concentrations of 500 nM, 5 μM, and 50 µM, respectively, and cultured at 37° C. for 24 hours. As a positive control, minoxidil was treated at a concentration of 1 μM, and as a negative control, HHFDPC without any treatment was used. Then, Western blotting was performed to detect phosphorylated AKT and phosphorylated ERK. After washing with PBS, the cells were treated with 100 ? of lysis buffer to destroy cells, thereby obtaining cell lysate. After electrophoresis using a 10% SDS-PAGE gel, it was transferred to a PVDF membrane and blocked using 5% skim milk at room temperature for 30 minutes. […] After washing again with 0.1% PBS-T (0.1% Tween-20 in PBS) three times for 15 minutes each, p-AKT and p-ERK were detected by treatment with ECL solution (GE Healthcare, USA).

p-AKT = assay: Western blotting of phosphorylated AKT in HHFDPC; conditions: peptide 500 nM, 5 μM, 50 μM, 24 hours, vs control not treated with the peptide, FIG. 2
Method: as §3

Ha3-II = assay: RT-PCR of Ha3-II in HHORSC; conditions: peptide 500 nM, 5 μM, 50 μM, 72 hours, vs control without treatment, FIG. 6
Method: as §2

## CPRHENPVC [the peptide of the present invention]
HHFDPC
  proliferation of HHFDPC (absorbance at 540 nm, MTT): the proliferation of HHFDPC was promoted
LEF-1
  LEF-1 mRNA: the amount of mRNA increased further
c-Myc
  c-Myc mRNA: the amount of mRNA increased further
DKK-1 protein
  amount of DKK-1 protein: the amount of DKK-1 protein was found to be reduced
Cyclin D1
  cyclin D1 mRNA: the amount of mRNA increased further
Keratin 19
  Keratin 19 mRNA: the amount of mRNA increased further
β-catenin
  β-catenin moved into the nucleus: migration due to activation of β-catenin increased
MSX2
  MSX2 mRNA: the amount of mRNA increased further
Keratin 14
  Keratin 14 mRNA: the amount of mRNA increased further
p-ERK
  p-ERK phosphorylation: phosphorylation was found to be increased
p-AKT
  p-AKT phosphorylation: phosphorylation was found to be increased
Ha3-II
  Ha3-II mRNA: the amount of mRNA increased further
